Assay results from patent US20260042764A1, “COMPOSITIONS AND METHODS FOR INHIBITION OF KRAS” (TheRas, Inc., priority 2022, published 2026).

Legend:
GP2d cells (KRAS G12D) = test: Cell-based pERK HTRF assay in GP2d cell (Biological Example 2); conditions: GP2d, GP2d (KRAS G12D) cells, pERK HTRF
Experimental: A pERK assay (Perkin Elmer) was used to determine the effectiveness of compounds in disrupting KRAS G12D protein/effector signaling in cells.
On Day 1, cells (GP2d) were seeded into 96-well plates at 3×10^4 cells/well in 80 μL complete growth media (DMEM, 10% FBS).
On Day 2, cells were treated with compounds at 0.25% DMSO. The source plate was created with compounds diluted in media at 5-fold the final assay concentration. The compounds were run in a 9-point concentration curve starting at 1 μM or in a 9-point concentration curve starting at 100 nM, with a half-log dilution between concentrations. Twenty μL was transferred onto the cell plates (final volume in wells was 100 μL). Plates were harvested after 60 min incubation by aspirating media and adding kit-supplied 1x supplemented lysis buffer to all wells (50 μL per well). Plates were then placed on a plate shaker and incubated at 850 rpm for an additional 30 min.
Antibody mixture solution was prepared by diluting aliquoted d2 and Eu Cryptate antibodies 1:20 in kit supplied detection buffer, and mixing the diluted antibodies solutions (1:1 v:v).
Samples were homogenized by pipetting up and down and then transferred (16 μL of cell lysates) from the 96-well cell culture plate to two wells of the HTRF 384-well detection plate containing the antibody solution. Plates were centrifuged (524 g for 1 min) and allowed to incubate between 4 and 24 h at room temperature. Maximum signal is reached after 4 h incubation time and remains stable over a period of 24 hours. Therefore, readings can be made between 4 and 24 h of incubation. Plates were centrifuged again (524 g for Imin), then analyzed on the EnVision plate reader using the following settings: Excitation 320 nm, Bandwidth 75 nm; Emission 615 nm, Bandwidth 85 nm; Gain 100%; Flashes 100; Lag 60 μs.

[1] = biological target: T1, Avi-KRAS G12V (1-169) GppNHp/RAF1 RBD-3xFLAG (52-151) (Homo sapiens, UniProt P01116, G12V); test: Raf1-KRAS G12V-GppNHP disruption HTRF assay (Biological Example 1); assay type: binding; conditions: KRAS G12V, GppNHp-loaded; Table 11
T1 construct: Avi-KRAS G12V (1-169)
T1 sequence (P01116 1-169 isoform P01116-2 G12V): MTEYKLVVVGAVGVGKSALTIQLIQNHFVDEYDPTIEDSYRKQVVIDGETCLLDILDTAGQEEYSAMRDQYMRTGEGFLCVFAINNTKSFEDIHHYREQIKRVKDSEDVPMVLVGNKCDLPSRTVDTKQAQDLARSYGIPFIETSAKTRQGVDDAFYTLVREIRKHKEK
Experimental: (§1) A protein:protein interaction (PPI) Homogeneous Time Resolved Fluorescence (HTRF) assay was used to determine the effectiveness of compounds of the present disclosure in disrupting KRAS protein and effector RAF1 binding.
(§2) The assay buffer included: 50 mM Tris pH 7.5, 100 mM NaCl, 5 mM MgCl2, 0.1% BSA, 0.01% Tween, and 10% DMSO. The bead buffer included: 50 mM Tris pH 7.5, and 0.01% Tween 20. Assay volume of 20 μL was used in a 384 well plate-low volume format.
(§3) The HTRF assay employed the following protocol:
(§4) Protein mix was prepared in assay buffer, and dispensed on plates, 10 μL per well, then incubated for 1 h at room temperature, with 700 rpm shaking, Reagents mix was prepared and dispensed on plates, 10 μL per well, then incubated for 1 h at room temperature, with 700 rpm shaking.
(§5) Data was reported as percentage of activity, with DMSO as 100%. Data was plotted and analyzed using Prism 8.

[2] = biological target: T2, Avi-KRAS WT (1-169) GppNHp/RAF1 RBD-3xFLAG (52-151) (Homo sapiens, UniProt P01116); test: Raf1-KRAS WT-GppNHP disruption HTRF assay (Biological Example 1); assay type: binding; conditions: KRAS WT, GppNHp-loaded; Table 11
T2 construct: Avi-KRAS WT (1-169)
T2 sequence (P01116 1-169 isoform P01116-2): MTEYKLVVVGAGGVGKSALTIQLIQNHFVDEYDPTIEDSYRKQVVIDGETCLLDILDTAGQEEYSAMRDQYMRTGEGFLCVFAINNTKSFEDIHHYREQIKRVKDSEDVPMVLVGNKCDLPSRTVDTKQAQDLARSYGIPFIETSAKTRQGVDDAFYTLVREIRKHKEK
Experimental: as §1, §2, §3, §4, §5

[3] = biological target: T3, Avi-KRAS G12R (1-169) GppNHp/RAF1 RBD-3xFLAG (52-151) (Homo sapiens, UniProt P01116, G12R); test: Raf1-KRAS G12R-GppNHP disruption HTRF assay (Biological Example 1); assay type: binding; conditions: KRAS G12R, GppNHp-loaded; Table 11
T3 construct: Avi-KRAS G12R (1-169)
T3 sequence (P01116 1-169 isoform P01116-2 G12R): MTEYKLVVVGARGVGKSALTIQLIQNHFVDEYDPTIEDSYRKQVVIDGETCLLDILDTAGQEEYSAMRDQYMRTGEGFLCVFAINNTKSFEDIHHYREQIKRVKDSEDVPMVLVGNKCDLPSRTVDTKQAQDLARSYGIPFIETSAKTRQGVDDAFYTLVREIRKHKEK
Experimental: as §1, §2, §3, §4, §5

[4] = biological target: T4, Avi-KRAS G12D (1-169) GppNHp/RAF1 RBD-3xFLAG (52-151) (Homo sapiens, UniProt P01116, G12D); test: Raf1-KRAS G12D-GppNHP disruption HTRF assay (Biological Example 1); assay type: binding; conditions: KRAS G12D, GppNHp-loaded; Table 11
T4 construct: Avi-KRAS G12D (1-169)
T4 sequence (P01116 1-169 isoform P01116-2 G12D): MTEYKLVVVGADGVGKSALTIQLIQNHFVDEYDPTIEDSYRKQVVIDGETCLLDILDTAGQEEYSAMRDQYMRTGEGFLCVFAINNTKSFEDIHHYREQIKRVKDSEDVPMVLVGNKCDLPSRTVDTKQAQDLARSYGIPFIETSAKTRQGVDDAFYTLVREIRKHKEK
Experimental: as §1, §2, §3, §4, §5

SMILES	IC50 (GP2d cells (KRAS G12D))	IC50 [1]	IC50 [2]	IC50 [3]	IC50 [4]
N#Cc1c(N)sc2c(F)ccc(-c3c(C(F)(F)F)cc4c(N5CCN(C(=O)CO)CC5)nc(OC[C@@]56CCCN5C[C@H](F)C6)nc4c3F)c12 [Compound 101]	< 0.1 µM	1 to 10 µM	0.1 to 1 µM	0.1 to 1 µM	0.1 to 1 µM
CN(CCO)c1nc(OC[C@@]23CCCN2C[C@H](F)C3)nc2c(F)c(-c3ccc(F)c4sc(N)c(C#N)c34)c(C(F)(F)F)cc12 [Compound 70, 2-amino-7-fluoro-4-(8-fluoro-2-(((2R,7aS)-2-fluorotetrahydro-1H-pyrrolizin-7a(5H)-yl)methoxy)-4-((2-hydroxyethyl)(methyl)amino)-6-(trifluoromethyl)quinazolin-7-yl)benzo[b]thiophene-3-carbonitrile]	< 0.1 µM	0.1 to 1 µM	0.1 to 1 µM	0.1 to 1 µM	< 0.1 µM
N#Cc1c(N)sc2c(F)ccc(-c3c(C(F)(F)F)cc4c(N5CC[C@@H](O)C5)nc(OC[C@@]56CCCN5C[C@H](F)C6)nc4c3F)c12 [Compound 126]	< 0.1 µM	0.1 to 1 µM	0.1 to 1 µM	0.1 to 1 µM	0.1 to 1 µM
CN(c1nc(OC[C@@]23CCCN2C[C@H](F)C3)nc2c(F)c(-c3ccc(F)c4sc(N)c(C#N)c34)c(C(F)(F)F)cc12)[C@H]1C[C@@H](F)C1 (atropisomer, axis not shown) [Compound 160]		1 to 10 µM	0.1 to 1 µM	0.1 to 1 µM	0.1 to 1 µM
CN(c1nc(OCC23CCCN2CCC3)nc2c(F)c(-c3ccc(F)c4sc(N)nc34)c(C(F)(F)F)cc12)[C@@H]1CC[C@H](O)C1 (atropisomer, axis not shown) [Compound 62]		> 10 µM	1 to 10 µM	1 to 10 µM	1 to 10 µM
Nc1nc2c(-c3c(C(F)(F)F)cc4c(N5CCC(O)C5)nc(OCC56CCCN5CCC6)nc4c3F)ccc(F)c2s1 (stereo not shown) [Compound 55]		> 10 µM	1 to 10 µM	> 10 µM	1 to 10 µM
CN(c1nc(OCC23CCCN2CCC3)nc2c(F)c(-c3ccc(F)c4sc(N)nc34)c(C(F)(F)F)cc12)C1CC(CO)C1 (stereo not shown) [Compound 4]		> 10 µM	1 to 10 µM	> 10 µM	1 to 10 µM
Nc1nc2c(-c3c(C(F)(F)F)cc4c(N5CC(CO)C5)nc(OCC56CCCN5CCC6)nc4c3F)ccc(F)c2s1 [Compound 57]		> 10 µM	1 to 10 µM	1 to 10 µM	1 to 10 µM
Nc1nc2c(-c3c(C(F)(F)F)cc4c(N5CCC(CO)CC5)nc(OCC56CCCN5CCC6)nc4c3F)ccc(F)c2s1 [Compound 43]		1 to 10 µM	0.1 to 1 µM	1 to 10 µM	0.1 to 1 µM
Nc1nc2c(-c3c(C(F)(F)F)cc4c(N[C@H]5CC[C@@H](O)CC5)nc(OCC56CCCN5CCC6)nc4c3F)ccc(F)c2s1 [Compound 64]		1 to 10 µM	1 to 10 µM	1 to 10 µM	1 to 10 µM
Nc1nc2c(-c3c(C(F)(F)F)cc4c(NC[C@@H]5CC[C@H](CO)C5)nc(OCC56CCCN5CCC6)nc4c3F)ccc(F)c2s1 [Compound 68]		1 to 10 µM	> 10 µM	> 10 µM	> 10 µM
CN(c1nc(OC[C@@]23CCCN2C[C@H](F)C3)nc2c(F)c(-c3ccc(F)c4sc(N)nc34)c(C(F)(F)F)cc12)[C@H]1C[C@@H](O)C1 (atropisomer, axis not shown) [Compound 8]		0.1 to 1 µM	0.1 to 1 µM	1 to 10 µM	0.1 to 1 µM
CN(c1nc(OCC2(CN3CCOCC3)CC2)nc2c(F)c(-c3ccc(F)c4sc(N)nc34)c(C(F)(F)F)cc12)[C@H]1C[C@@H](O)C1 (atropisomer, axis not shown) [Compound 16]		1 to 10 µM	1 to 10 µM	1 to 10 µM	1 to 10 µM
